Results taken from ChEMBL document CHEMBL1151160, “Challenges and rewards of research in marine natural products chemistry in Brazil” (J Nat Prod, 2004).
Values after ≈ are worked out from the molar mass of the structure shown.

Tests used:
Assay type in all cases: functional, cell-based
[1] = test system: MCF7; assay: Inhibition of G2 check point in gamma-irradiated human MCF7 cells expressing mutant p53 after 16 hrs by flow cytometry; conditions: MCF7, light or radiation study
[2] = test system: MCF7; assay: Cytotoxicity against human MCF7 cells after 16 hrs by Celltiter assay; conditions: MCF7, 16 h
[3] = test system: HCT-116; assay: Cytotoxicity against human HCT116 cells

| IC50 [1] [nM] | SMILES | IC50 [2] [nM] | IC50 [3] [µg/mL] |
| --- | --- | --- | --- |
| 1000 | O=C1NC(=O)c2c1c1[nH]cnc1c1[nH]c3ccccc3c21 [GRANULATIMIDE] |  |  |
| 1000 | O=C1NC(=O)c2c1c1c3ccccc3[nH]c1n1cncc21 [ISOGRANULATIMIDE] | 40000 |  |
|  | CC(=O)OCC(C)CCC[C@@H](C)[C@H]1CC[C@H]2[C@@H]3C[C@@H](O)[C@@]4(O)C[C@@H](O[C@@H]5OC[C@@H](O)[C@@H](OC(C)=O)[C@@H]5O)CC[C@]4(C)[C@H]3CC[C@]12C (stereo not given in full) [RIISEIN A] |  | 2 (≈ 3.06 µM) |
|  | CC(=O)OCC(C)CCC[C@@H](C)[C@H]1CC[C@H]2[C@@H]3C[C@@H](O)[C@@]4(O)C[C@@H](O[C@@H]5OC[C@@H](OC(C)=O)[C@@H](O)[C@@H]5O)CC[C@]4(C)[C@H]3CC[C@]12C (stereo not given in full) [RIISEIN B] |  | 2 (≈ 3.06 µM) |
